Values after ≈ are worked out from the molar mass of the structure shown. Values joined by “and” are separate entries in the source; they are usually repeats but may differ in a detail not shown here. Equal entries are not always repeated.
Experiments:
Type in all cases: cell-based, influenza A virus
[1] = tested on: influenza A/California/10/09 (H1N1) (CA10), S31N amantadine-resistant
[2] = tested on: A/Mississippi/3/01 (H1N1) H274Y (MS H274Y) oseltamivir-resistant
[3] = tested on: A/Hawaii/21/07 (H1N1) H274Y (HI H274Y)
[4] = tested on: A/New Caledonia/20/99 (H1N1) V27A (NC V27A)
[5] = tested on: A/Wisconsin/67/05 (H3N2) S31N (WI S31N)

Compound: Oseltamivir carboxylate
- Fold Reduction in EC50 Compared to (B) [1]: 6.5
- Fold Reduction in EC50 Compared to (C) [1]: 6.5
- EC50 [2]: 73 µg/mL
- Fold Reduction in EC50 Compared to (A) [2]: 21
- Fold Reduction in EC50 Compared to (B) [2]: >29
- Fold Reduction in EC50 Compared to (C) [2]: >29
- antiviral activity as a single agent [2]: no antiviral activity
- contribution to the total synergy of the TCAD regimen [2]: 76%
- fold reduction in susceptibility [2]: 1480 fold
- oseltamivir carboxylate concentration from which it contributed to the synergy of the TCAD regimen [2]: ≥ 0.1 µg/mL
- Fold Reduction in EC50 Compared to (B) [3]: 3.3
- Fold Reduction in EC50 Compared to (C) [3]: 4.2
- antiviral activity as a single agent [3]: no antiviral activity
- contribution to the total synergy of the TCAD regimen [3]: 83%
- fold reduction in susceptibility [3]: 300 fold
- oseltamivir carboxylate concentration from which it contributed to the synergy of the TCAD regimen [3]: ≥ 0.32 µg/mL

Compound: NC(=O)c1ncn([C@@H]2O[C@H](CO)[C@@H](O)[C@H]2O)n1 [Ribavirin]
- Fold Reduction in EC50 Compared to (B) [1]: 1.5
- Fold Reduction in EC50 Compared to (C) [1]: 2.2
- EC50 [2]: 3.6 µg/mL (≈ 14.7 µM)

Compound: NC12CC3CC(CC(C3)C1)C2 [Amantadine]
- Fold Reduction in EC50 Compared to (A) [1]: 1.8 and 2.0 and 3.2
- Fold Reduction in EC50 Compared to (B) [1]: 1.7
- Fold Reduction in EC50 Compared to (C) [1]: 1.6
- amantadine concentration with significant contribution to the synergy of the TCAD regimen [1]: ≥ 0.32 µg/mL
- contribution to the total synergy of the TCAD regimen [1]: 44%
- activity as a single agent [4]: no activity
- amantadine concentration at which the increase in synergy of the TCAD regimen was observed [4]: 0.32 µg/mL
- activity as a single agent [5]: no activity
- amantadine concentration at which the increase in synergy of the TCAD regimen was observed [5]: 1 µg/mL
- EC50 [2]: 0.060 µg/mL (≈ 0.397 µM)

Source: PMC2825274 (PLoS ONE, 2010)
